Experimental data taken from BindingDB's records for doi:10.1016/j.ejmech.2019.111921 (University of Kwazulu-Natal, 2020).

Assays:
[1] = biological target: T1, Beta-glucuronidase (Rattus norvegicus, UniProt P06760); experiment: Inhibition of degranulated rat neutrophils beta-glucuronidase
T1 sequence (P06760 whole entry): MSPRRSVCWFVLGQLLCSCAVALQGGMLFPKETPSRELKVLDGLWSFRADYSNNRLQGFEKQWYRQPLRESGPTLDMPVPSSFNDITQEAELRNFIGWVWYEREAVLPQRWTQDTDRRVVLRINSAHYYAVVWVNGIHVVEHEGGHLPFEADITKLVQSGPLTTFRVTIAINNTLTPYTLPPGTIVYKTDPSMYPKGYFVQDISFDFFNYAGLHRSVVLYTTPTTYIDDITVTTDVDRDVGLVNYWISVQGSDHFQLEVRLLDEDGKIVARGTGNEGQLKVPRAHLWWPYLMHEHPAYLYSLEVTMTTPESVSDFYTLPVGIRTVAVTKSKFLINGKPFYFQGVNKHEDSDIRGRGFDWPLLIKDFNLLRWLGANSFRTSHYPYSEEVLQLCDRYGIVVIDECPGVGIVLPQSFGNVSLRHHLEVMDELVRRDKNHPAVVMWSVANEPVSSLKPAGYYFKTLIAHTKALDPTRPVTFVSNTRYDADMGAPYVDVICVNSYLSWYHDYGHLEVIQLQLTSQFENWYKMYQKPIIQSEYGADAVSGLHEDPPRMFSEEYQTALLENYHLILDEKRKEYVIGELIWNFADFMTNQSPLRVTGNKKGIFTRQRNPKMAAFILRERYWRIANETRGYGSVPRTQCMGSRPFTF

[2] = biological target: T1, Beta-glucuronidase; experiment: Inhibition of degranulated rat peritoneal mast cells beta-glucuronidase
[3] = biological target: T2, Beta-glucuronidase (Homo sapiens, UniProt P08236); experiment: Inhibition of beta-glucuronidase (unknown origin)
T2 sequence (P08236 whole entry): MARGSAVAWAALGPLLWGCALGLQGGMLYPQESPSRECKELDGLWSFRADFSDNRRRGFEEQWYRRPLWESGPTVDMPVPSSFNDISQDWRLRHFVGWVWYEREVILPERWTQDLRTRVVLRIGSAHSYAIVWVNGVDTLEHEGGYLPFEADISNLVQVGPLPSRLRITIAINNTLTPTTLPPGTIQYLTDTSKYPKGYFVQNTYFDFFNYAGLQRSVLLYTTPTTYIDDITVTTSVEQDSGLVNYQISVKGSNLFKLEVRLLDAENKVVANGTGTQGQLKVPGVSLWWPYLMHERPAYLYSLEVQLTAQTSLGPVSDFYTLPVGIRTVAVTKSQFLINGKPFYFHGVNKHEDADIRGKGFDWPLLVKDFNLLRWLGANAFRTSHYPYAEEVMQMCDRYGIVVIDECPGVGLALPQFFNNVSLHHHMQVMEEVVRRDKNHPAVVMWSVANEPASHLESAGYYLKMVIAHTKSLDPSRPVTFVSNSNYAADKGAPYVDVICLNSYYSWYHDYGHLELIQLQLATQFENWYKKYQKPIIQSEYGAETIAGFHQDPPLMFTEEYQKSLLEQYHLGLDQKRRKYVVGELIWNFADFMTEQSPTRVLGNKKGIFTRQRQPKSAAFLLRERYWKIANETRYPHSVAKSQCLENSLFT

IC50 [1] | IC50 [2] | IC50 [3] | SMILES
6.6 µM | 70 µM | – | COc1cc(/C=C/C(=O)OC/C(C)=C\Cc2c(O)ccc(C(=O)/C=C/c3ccc(O)cc3)c2O)ccc1O [Gemichalcone A]
– | – | 1640 µM | COc1cc([C@@H]2Oc3cc([C@H]4Oc5cc(O)cc(O)c5C(=O)[C@@H]4O)ccc3O[C@H]2CO)ccc1O [Silybin B]
5.8 µM | – | – | C/C(=C/Cc1c(O)ccc(C(=O)/C=C/c2ccc(O)cc2)c1O)COC(=O)/C=C/c1ccc(O)cc1 [gemichalcones B]
